Where a name gives a salt, the structure may show the parent alone.
How the values were obtained:
Assay type in all cases: cell-based
MYB mRNA [1] = assay: Gene panel canonical junction qPCR assay, decrease in CJ mRNA, Table 3; settings: decrease in canonical junction (CJ) mRNA, gene panel qPCR, Table 3
Procedure, shortened: (§1)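 Cells: A673 or K562; 24 h compound exposure, 37 °C, 5% CO2; 11-pt 3-fold series from 10 uM final; DMSO ≤0.25%. Lysate → cDNA → qPCR with junction-spanning primers/probe for CJ transcript. ΔCt vs housekeeper, ΔΔCt vs DMSO, 2^(−ΔΔCt), % response, 4PL → IC50.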

SMN2 mRNA = assay: as above; settings: decrease in canonical junction (CJ) mRNA, gene panel qPCR, Table 3
Procedure, shortened: as §1

HTT mRNA [2] = assay: as above; settings: decrease in canonical junction (CJ) mRNA, gene panel qPCR, Table 3
Procedure, shortened: as §1

MYB mRNA [3] = assay: Splicing RT-qPCR assay (THP), Table 2A; settings: Table 2A (THP); for AC50: AJ mRNA increase, read-out: MYB AJ (increase in alternative junction mRNA, AC50); for IC50: CJ mRNA decrease, read-out: MYB CJ (decrease in canonical junction mRNA, IC50)
[4] = system: SH-SY5Y (human neuroblastoma) cells; assay: Cell viability, Cell Titer Glo 2.0 assay; settings: read-out: Viability SHSY5Y.3 GI50
Procedure, shortened: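 CellTiter-Glo 2.0 luminescence read-out after 72 h compound exposure (37 °C, 5% CO2); medium-only wells as blank. DMSO 0.1% final.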

HTT mRNA [5] = assay: Splicing RT-qPCR assay (THP), Table 2A; settings: Table 2A (THP); for AC50: AJ mRNA increase, read-out: HTT AJ (increase in alternative junction mRNA, AC50); for IC50: CJ mRNA decrease, read-out: HTT CJ (decrease in canonical junction mRNA, IC50)

| Structure (SMILES) | IC50 (MYB mRNA [1]) | IC50 (SMN2 mRNA) | IC50 (HTT mRNA [2]) | AC50 (MYB mRNA [3]) | IC50 (MYB mRNA [3]) | GI50 [4] | AC50 (HTT mRNA [5]) | IC50 (HTT mRNA [5]) |
| --- | --- | --- | --- | --- | --- | --- | --- | --- |
| COc1nc2c(C(=O)Nc3cc(F)c4nc(C)cn4c3)ccc(N3CCC(N)CC3)c2s1 [Compound 208, 7-(4-aminopiperidin-1-yl)-N-(8-fluoro-2-methylimidazo[1,2-a]pyridin-6-yl)-2-methoxybenzo[d]thiazole-4-carboxamide] | < 100 nM | < 100 nM | 100 to 1000 nM | < 100 nM | < 100 nM | < 100 nM | 100 to 1000 nM | < 100 nM |
| Cc1cn2cc(NC(=O)c3ccc(N4CCC(NC5CC5)CC4)c4cc(C)nn34)cc(F)c2n1 [Compound 209, 4-[4-(cyclopropylamino)-1-piperidyl]-N-(8-fluoro-2-methyl-imidazo[1,2-a]pyridin-6-yl)-2-methyl-pyrazolo[1,5-a]pyridine-7-carboxamide] | < 100 nM | < 100 nM | 100 to 1000 nM | < 100 nM | < 100 nM | < 100 nM | 100 to 1000 nM | 100 to 1000 nM |
| Cc1cn2cc(NC(=O)c3ccc(N4CCC(NC5CC5)CC4)n4cc(C)nc34)cc(F)c2n1 [Compound 210, 5-(4-(cyclopropylamino)piperidin-1-yl)-N-(8-fluoro-2-methylimidazo[1,2-a]pyridin-6-yl)-2-methylimidazo[1,2-a]-pyridine-8-carboxamide] | < 100 nM | < 100 nM | 100 to 1000 nM | < 100 nM | < 100 nM | < 100 nM | 100 to 1000 nM | < 100 nM |
| Cc1cn2cc(NC(=O)c3ccc(N4C[C@@H](C)N[C@@H](C)C4)c4[nH]cnc34)cc(F)c2n1 [Compound 220, 7-[(3R,5S)-3,5-dimethylpiperazin-1-yl]-N-(8-fluoro-2-methyl-imidazo[1,2-a]pyridin-6-yl)-1H-1,3-benzodiazole-4-carboxamide] | 100 to 1000 nM | 100 to 1000 nM | 1000 to 10000 nM | 100 to 1000 nM | 100 to 1000 nM | 1000 to 10000 nM | 1000 to 10000 nM | > 10000 nM |
| Cc1cn2cc(NC(=O)c3ccc(N4C[C@H](C)N[C@@H](C)C4)c4[nH]cnc34)cc(F)c2n1 [Compound 221, 7-[(3S,5S)-3,5-dimethylpiperazin-1-yl]-N-(8-fluoro-2-methylimidazo[1,2-a]pyridin-6-yl)-1H-1,3-benzodiazole-4-carboxamide] | 100 to 1000 nM | < 100 nM | > 10000 nM | 100 to 1000 nM | 100 to 1000 nM | 1000 to 10000 nM | 1000 to 10000 nM | 1000 to 10000 nM |
| Cc1cn2cc(NC(=O)c3ccc(N4C[C@@H](C)N[C@@H](C)C4)c4[nH]c(C)nc34)cc(F)c2n1 [Compound 225, 7-[(3R,5S)-3,5-dimethylpiperazin-1-yl]-N-(8-fluoro-2-methylimidazo[1,2-a]pyridin-6-yl)-2-methyl-1H-1,3-benzodiazole-4-carboxamide] | 1000 to 10000 nM | 100 to 1000 nM | 1000 to 10000 nM | 1000 to 10000 nM | 100 to 1000 nM | 1000 to 10000 nM | > 10000 nM | 1000 to 10000 nM |
| Cc1cn2nc(C(=O)Nc3ccc(N4C[C@@H](C)N[C@@H](C)C4)c4cc[nH]c34)cc(C)c2n1 [Compound 237, N-(4-[(3R,5S)-3,5-dimethylpiperazin-1-yl]-1H-indol-7-yl)-2,8-dimethylimidazo[1,2-b]pyridazine-6-carboxamide] | 1000 to 10000 nM | 1000 to 10000 nM | 1000 to 10000 nM | 1000 to 10000 nM | 1000 to 10000 nM | 1000 to 10000 nM | 1000 to 10000 nM | 1000 to 10000 nM |
| Cc1cn2cc(NC(=O)c3ccc(N4C[C@H](C)N[C@@H](C)C4)c4[nH]nnc34)cc(F)c2n1 [Compound 242, 7-[(3S,5S)-3,5-dimethylpiperazin-1-yl]-N-(8-fluoro-2-methyl-imidazo[1,2-a]pyridin-6-yl)-1H-benzotriazole-4-carboxamide] | > 10000 nM | 1000 to 10000 nM | > 10000 nM | > 10000 nM | > 10000 nM | > 10000 nM | > 10000 nM | > 10000 nM |
| Cc1cn2cc(NC(=O)c3ccc(N4C[C@@H](C)N[C@@H](C)C4)c4[nH]nnc34)cc(F)c2n1 [Compound 243, 7-((3S,5R)-3,5-dimethylpiperazin-1-yl)-N-(8-fluoro-2-methylimidazo[1,2-a]pyridin-6-yl)-1H-benzo[d][1,2,3]-triazole-4-carboxamide hydrochloride] | > 10000 nM | 1000 to 10000 nM | > 10000 nM | > 10000 nM | > 10000 nM | > 10000 nM | > 10000 nM | > 10000 nM |

Source: patent US20260285853A1, “COMPOUNDS AND METHODS FOR MODULATING SPLICING” (REMIX THERAPEUTICS INC., priority 2023, published 2026)
